According to patent publication US20250136595A1, “ACYLATED HETEROCYCLIC QUINAZOLINE DERIVATIVES AS INHIBITORS OF ERBB2” (Enliven Inc., priority 2022, published 2025):

Legend:
[1] = target: T1, phosphorylated ERBB2 (pERBB2) (Homo sapiens, UniProt P04626); assay: Detection of phosphorylated ERBB2 (pERBB2) by ELISA in BT-474 cells; assay type: cell-based; settings: four hour incubation with compound
T1 construct: endogenous in cells; host or cells: BT-474
Summary of the method: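 BT-474 cells treated 4 h at 37 °C, 5% CO2 with four-fold dilutions (10 μM to 0.01 nM final). Lysates analysed by ELISA for pERBB2, TMB read at OD 450 nm. % relative activity normalised to no-cell (low) and 0.1% DMSO-treated (high) controls.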

Ba/F3 ERBB2 YVMA = Ba/F3 ERBB2 YVMA (Homo sapiens, UniProt P04626, DUP772-775, cells depend on it); assay: Cell viability assay (CellTiter Glo) in Ba/F3 cells engineered to express ERBB2 YVMA; assay type: cell-based, mouse; settings: Ba/F3 cells expressing human ERBB2 YVMA mutant, 72 hours, % viability, read-out: Ba/F3 ERBB2 YVMA IC50
Summary of the method: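 IL-3-independent mouse Ba/F3 line stably transduced with human ERBB2 YVMA, seeded at 3000 cells/well, exposed to serially diluted compound (≤0.1% DMSO) for 72 h at 37° C. ATP read by CellTiter Glo luminescence, normalised to DMSO and media-only controls; sigmoidal nonlinear regression fit.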

[2] = target: T2, phosphorylated EGFR (pEGFR) (Homo sapiens, UniProt P00533); assay: Detection of phosphorylated EGFR (pEGFR) in EGF-stimulated A431 cells (AlphaLISA); assay type: cell-based; settings: A431 cells (10% FBS), 4 hours incubation, EGF 30 ng/mL for 10 minutes
T2 construct: performed to measure phosphorylated EGFR levels using A431 cells; endogenous in cells; host or cells: A431
Summary of the method: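 Cells in 10% FBS treated with compound 4 h at 37° C., then stimulated 10 min with 30 ng/mL EGF, lysed, and pEGFR measured by AlphaLISA. Inhibition normalized to DMSO and staurosporine controls; IC50 from four-parameter logistic fit.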

T1 sequence (P04626 23-1255): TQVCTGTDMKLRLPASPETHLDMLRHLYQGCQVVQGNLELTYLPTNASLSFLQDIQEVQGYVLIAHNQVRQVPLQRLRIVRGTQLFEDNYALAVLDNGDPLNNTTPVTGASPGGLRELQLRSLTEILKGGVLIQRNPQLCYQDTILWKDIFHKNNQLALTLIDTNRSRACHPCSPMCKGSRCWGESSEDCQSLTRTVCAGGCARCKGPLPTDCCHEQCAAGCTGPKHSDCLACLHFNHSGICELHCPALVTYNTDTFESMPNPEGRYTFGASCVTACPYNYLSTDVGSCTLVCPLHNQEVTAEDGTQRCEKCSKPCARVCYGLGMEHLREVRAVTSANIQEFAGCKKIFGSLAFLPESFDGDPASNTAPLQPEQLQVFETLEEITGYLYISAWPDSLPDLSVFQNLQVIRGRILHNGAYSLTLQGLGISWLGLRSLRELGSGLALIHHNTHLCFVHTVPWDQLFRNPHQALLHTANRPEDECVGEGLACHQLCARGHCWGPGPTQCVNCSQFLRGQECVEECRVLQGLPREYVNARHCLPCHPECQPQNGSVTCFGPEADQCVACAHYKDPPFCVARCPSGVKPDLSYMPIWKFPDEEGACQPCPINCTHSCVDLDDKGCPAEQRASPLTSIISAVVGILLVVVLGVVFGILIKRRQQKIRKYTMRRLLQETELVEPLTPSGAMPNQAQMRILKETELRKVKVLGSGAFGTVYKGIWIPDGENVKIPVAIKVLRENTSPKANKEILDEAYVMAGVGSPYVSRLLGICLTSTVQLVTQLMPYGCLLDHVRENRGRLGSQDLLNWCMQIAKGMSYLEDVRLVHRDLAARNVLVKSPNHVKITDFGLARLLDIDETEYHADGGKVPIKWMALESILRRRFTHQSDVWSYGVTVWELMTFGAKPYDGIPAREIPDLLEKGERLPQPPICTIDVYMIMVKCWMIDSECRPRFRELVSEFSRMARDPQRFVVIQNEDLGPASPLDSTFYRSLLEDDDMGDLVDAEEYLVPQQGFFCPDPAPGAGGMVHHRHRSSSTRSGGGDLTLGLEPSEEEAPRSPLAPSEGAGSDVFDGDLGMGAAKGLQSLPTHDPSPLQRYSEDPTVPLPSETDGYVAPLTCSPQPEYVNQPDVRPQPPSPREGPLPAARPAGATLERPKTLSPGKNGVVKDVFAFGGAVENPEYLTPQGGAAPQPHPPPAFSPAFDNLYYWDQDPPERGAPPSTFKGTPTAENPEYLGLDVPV
T2 sequence (P00533 25-1210): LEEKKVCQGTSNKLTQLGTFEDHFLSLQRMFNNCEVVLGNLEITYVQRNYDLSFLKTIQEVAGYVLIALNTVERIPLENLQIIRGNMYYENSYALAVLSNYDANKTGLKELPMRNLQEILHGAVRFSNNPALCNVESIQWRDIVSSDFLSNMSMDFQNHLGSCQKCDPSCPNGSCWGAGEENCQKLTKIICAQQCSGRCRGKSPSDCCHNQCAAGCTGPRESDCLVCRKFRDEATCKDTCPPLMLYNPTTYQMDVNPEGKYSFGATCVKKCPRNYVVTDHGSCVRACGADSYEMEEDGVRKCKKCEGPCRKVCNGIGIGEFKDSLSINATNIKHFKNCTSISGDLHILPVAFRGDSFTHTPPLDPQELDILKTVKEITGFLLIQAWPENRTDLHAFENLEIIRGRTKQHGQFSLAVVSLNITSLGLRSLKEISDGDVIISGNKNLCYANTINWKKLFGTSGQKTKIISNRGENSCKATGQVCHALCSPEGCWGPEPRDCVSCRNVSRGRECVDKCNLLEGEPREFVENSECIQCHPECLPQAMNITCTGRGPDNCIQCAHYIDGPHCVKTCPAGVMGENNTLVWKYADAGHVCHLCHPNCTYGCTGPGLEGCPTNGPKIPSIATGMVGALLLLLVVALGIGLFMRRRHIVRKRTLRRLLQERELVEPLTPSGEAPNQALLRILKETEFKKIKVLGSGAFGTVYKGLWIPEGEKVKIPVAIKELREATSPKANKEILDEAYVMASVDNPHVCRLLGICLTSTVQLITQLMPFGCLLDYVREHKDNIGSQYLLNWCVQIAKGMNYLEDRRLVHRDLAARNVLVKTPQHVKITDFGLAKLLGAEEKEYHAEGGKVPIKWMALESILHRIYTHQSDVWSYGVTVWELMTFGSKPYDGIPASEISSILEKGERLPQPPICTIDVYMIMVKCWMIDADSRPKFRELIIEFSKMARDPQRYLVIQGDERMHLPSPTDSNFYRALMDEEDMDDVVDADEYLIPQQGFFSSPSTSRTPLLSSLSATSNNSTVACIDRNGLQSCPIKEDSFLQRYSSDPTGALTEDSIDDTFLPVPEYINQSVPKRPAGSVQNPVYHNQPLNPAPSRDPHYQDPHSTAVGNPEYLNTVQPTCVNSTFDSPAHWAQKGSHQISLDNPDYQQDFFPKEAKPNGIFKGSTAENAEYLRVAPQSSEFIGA
Sequence of Ba/F3 ERBB2 YVMA (P04626 with tags, fused parts or gaps DUP772-775): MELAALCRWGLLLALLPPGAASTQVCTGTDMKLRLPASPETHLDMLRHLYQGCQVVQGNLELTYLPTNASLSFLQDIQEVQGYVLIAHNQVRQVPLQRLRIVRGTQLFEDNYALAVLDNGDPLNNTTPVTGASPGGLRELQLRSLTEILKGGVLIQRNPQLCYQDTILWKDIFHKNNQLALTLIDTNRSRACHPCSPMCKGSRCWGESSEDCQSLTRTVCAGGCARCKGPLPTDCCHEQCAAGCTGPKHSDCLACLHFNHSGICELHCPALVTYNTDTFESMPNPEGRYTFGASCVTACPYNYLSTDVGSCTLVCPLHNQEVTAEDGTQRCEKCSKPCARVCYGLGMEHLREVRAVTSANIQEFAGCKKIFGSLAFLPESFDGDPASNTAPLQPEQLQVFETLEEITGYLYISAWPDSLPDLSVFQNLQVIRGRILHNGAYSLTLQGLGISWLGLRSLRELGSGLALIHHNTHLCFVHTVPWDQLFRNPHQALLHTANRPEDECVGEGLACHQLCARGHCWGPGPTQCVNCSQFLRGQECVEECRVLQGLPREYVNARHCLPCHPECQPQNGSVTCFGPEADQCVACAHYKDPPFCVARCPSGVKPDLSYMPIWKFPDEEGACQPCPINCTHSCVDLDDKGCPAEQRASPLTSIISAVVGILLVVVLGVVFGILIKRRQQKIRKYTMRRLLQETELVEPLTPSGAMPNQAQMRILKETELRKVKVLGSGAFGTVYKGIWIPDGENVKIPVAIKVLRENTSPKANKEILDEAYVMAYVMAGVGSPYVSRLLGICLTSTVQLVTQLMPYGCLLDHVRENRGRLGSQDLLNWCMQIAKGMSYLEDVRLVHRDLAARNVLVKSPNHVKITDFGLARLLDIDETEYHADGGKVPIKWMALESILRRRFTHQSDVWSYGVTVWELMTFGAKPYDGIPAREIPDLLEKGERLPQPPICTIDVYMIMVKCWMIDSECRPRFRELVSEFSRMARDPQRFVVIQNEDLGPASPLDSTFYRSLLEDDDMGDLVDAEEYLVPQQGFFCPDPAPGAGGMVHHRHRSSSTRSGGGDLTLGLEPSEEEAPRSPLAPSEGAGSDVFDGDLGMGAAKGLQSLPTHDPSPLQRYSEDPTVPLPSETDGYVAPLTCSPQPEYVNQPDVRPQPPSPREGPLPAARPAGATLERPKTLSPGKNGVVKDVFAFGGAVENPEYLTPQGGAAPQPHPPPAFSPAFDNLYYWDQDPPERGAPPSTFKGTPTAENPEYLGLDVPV

| Compound | IC50 [1] [nM] | IC50 [2] [nM] | GI50 (Ba/F3 ERBB2 YVMA) [nM] |
| --- | --- | --- | --- |
| C=CC(=O)N1CC[C@H](Nc2ccc3ncnc(Nc4ccc(Oc5ccn6ncnc6c5)c(C)c4)c3n2)C1 [Compound 43, 1-[(3S)-3-({4-[(3-methyl-4-{[1,2,4]triazolo[1,5-a]pyridin-7-yloxy}phenyl)amino]pyrido[3,2-d]pyrimidin-6-yl}amino)pyrrolidin-1-yl]prop-2-en-1-one] | 5.11 | 61.2 | 3.93 |
| CC#CC(=O)N1CC2CC(C1)N2c1ccc2ncnc(Nc3ccc(Oc4ccn5ncnc5c4)c(C)c3)c2n1 [Compound 28, 1-(6-{4-[(3-methyl-4-{[1,2,4]triazolo[1,5-a]pyridin-7-yloxy}phenyl)amino]pyrido[3,2-d]pyrimidin-6-yl}-3,6-diazabicyclo[3.1.1]heptan-3-yl)but-2-yn-1-one] | 444 | > 10000 | 228 |
| C=CC(=O)N1CCC2(C1)CN(c1ccc3ncnc(Nc4ccc(Oc5ccn6ncnc6c5)c(C)c4)c3n1)C2 [Compound 21, 1-(2-{4-[(3-methyl-4-{[1,2,4]triazolo[1,5-a]pyridin-7-yloxy}phenyl)amino]pyrido[3,2-d]pyrimidin-6-yl}-2,6-diazaspiro[3.4]octan-6-yl)prop-2-en-1-one] | 12.1 | 9420 | 9.76 |
| C=CC(=O)N1CC[C@@H](Oc2ccc3ncnc(Nc4ccc(Oc5ccc6c(c5)ncn6C)c(C)c4)c3c2)C1 [Compound 37, 1-[(3R)-3-{[4-({3-methyl-4-[(1-methyl-1,3-benzodiazol-5-yl)oxy]phenyl}amino)quinazolin-6-yl]oxy}pyrrolidin-1-yl]prop-2-en-1-one] | 33.7 | 2880 | 52.8 |
| C=CC(=O)N1CCN(c2ccc3ncnc(Nc4ccc(Cc5ccn6ncnc6c5)c(C)c4)c3n2)[C@@H](C)C1 [Compound 66, (S)-1-(4-(4-((4-([1,2,4]triazolo[1,5-a]pyridin-7-ylmethyl)-3-methylphenyl)amino)pyrido[3,2-d]pyrimidin-6-yl)-3-methylpiperazin-1-yl)prop-2-en-1-one] | 18 | 9020 | 12.5 |
| CC#CC(=O)N1CCN(c2ccc3ncnc(Nc4ccc(Oc5ccn6ncnc6c5)c(C)c4)c3n2)[C@@H](C)C1 [Compound 25, 1-[(3S)-3-methyl-4-{4-[(3-methyl-4-{[1,2,4]triazolo[1,5-a]pyridin-7-yloxy}phenyl)amino]pyrido[3,2-d]pyrimidin-6-yl}piperazin-1-yl]but-2-yn-1-one] | 63.5 | > 10000 | 23.4 |
| C=CC(=O)N1CCC2(CC1)CN(c1ccc3ncnc(Nc4ccc(Oc5ccn6ncnc6c5)c(C)c4)c3n1)C2 [Compound 19, 1-(2-{4-[(3-methyl-4-{[1,2,4]triazolo[1,5-a]pyridin-7-yloxy}phenyl)amino]pyrido[3,2-d]pyrimidin-6-yl}-2,7-diazaspiro[3.5]nonan-7-yl)prop-2-en-1-one] | 98 | > 10000 | 176 |
| C=CC(=O)N1CCN(c2ccc3ncnc(Nc4ccc(Oc5ccn6ncnc6c5)c(C)c4)c3n2)[C@H](C)C1 [Compound 11, 1-[(3R)-3-methyl-4-{4-[(3-methyl-4-{[1,2,4]triazolo[1,5-a]pyridin-7-yloxy}phenyl)amino]pyrido[3,2-d]pyrimidin-6-yl}piperazin-1-yl]prop-2-en-1-one] | 16.3 | 2360 | 17.9 |
| CC#CC(=O)N1CCN(c2ccc3ncnc(Nc4ccc(Oc5ccc6c(c5)ncn6C)c(C)c4)c3n2)CC1 [Compound 31, 1-{4-[4-({3-methyl-4-[(1-methyl-1,3-benzodiazol-5-yl)oxy]phenyl}amino)pyrido[3,2-d]pyrimidin-6-yl]piperazin-1-yl}but-2-yn-1-one] | 29 | 7640 | 6.56 |

Now from value to compound, other results behind:

| IC50 [1] [nM] | IC50 [2] [nM] | Compound | GI50 (Ba/F3 ERBB2 YVMA) [nM] |
| --- | --- | --- | --- |
| 10 | 695 | C=CC(=O)N1CCN(c2ccc3ncnc(Nc4ccc(Oc5ccn6ncnc6c5)c(C)c4)c3n2)CC1(C)C [Compound 108, 1-(4-(4-((4-([1,2,4]triazolo[1,5-a]pyridin-7-yloxy)-3-methylphenyl)amino)pyrido[3,2-d]pyrimidin-6-yl)-2,2-dimethylpiperazin-1-yl)prop-2-en-1-one] | 10.9 |
| 24.7 | > 10000 | C=CC(=O)N1CCN(c2ccc3ncnc(Nc4ccc(Cc5ccn6ncnc6c5)c(C)c4)c3c2)[C@@H](C)C1 [Compound 104, (S)-1-(4-(4-((4-([1,2,4]triazolo[1,5-a]pyridin-7-ylmethyl)-3-methylphenyl)amino)quinazolin-6-yl)-3-methylpiperazin-1-yl)prop-2-en-1-one] | 65.1 |
| 1600 | > 10000 | C=CC(=O)N1CCN(c2ccc3ncnc(Nc4ccc(Cc5ccn6ncnc6c5)c(C)c4)c3c2F)C(C)C1 (stereo not drawn) [Compound 79, 1-(4-(4-((4-([1,2,4]triazolo[1,5-a]pyridin-7-ylmethyl)-3-methylphenyl)amino)-5-fluoroquinazolin-6-yl)-3-methylpiperazin-1-yl)prop-2-en-1-one] | > 500 |
| 11 | 2360 | C=CC(=O)N1CCN(c2ccc3ncnc(Nc4ccc(Cc5ccn6ncnc6c5)c(C)c4)c3c2)CC1 [Compound 81, 1-(4-(4-((4-([1,2,4]triazolo[1,5-a]pyridin-7-ylmethyl)-3-methylphenyl)amino)quinazolin-6-yl)piperazin-1-yl)prop-2-en-1-one] | 17.8 |
| 21.2 | 1800 | C=CC(=O)N1CC2CCC(C1)N2c1ccc2ncnc(Nc3ccc(Cc4ccn5ncnc5c4)c(C)c3)c2n1 [Compound 95, 1-(8-{4-[(3-methyl-4-{[1,2,4]triazolo[1,5-a]pyridin-7-ylmethyl}phenyl)amino]pyrido[3,2-d]pyrimidin-6-yl}-3,8-diazabicyclo[3.2.1]octan-3-yl)prop-2-en-1-one] | 6.96 |
| 44.8 | 2570 | C=CC(=O)N1CCN(c2ccc3ncnc(Nc4ccc(Cc5ccc6c(c5)ncn6C)c(C)c4)c3n2)[C@@H](C)C1 [Compound 68, (S)-1-(3-methyl-4-(4-((3-methyl-4-((1-methyl-1H-benzo[d]imidazol-5-yl)methyl)phenyl)amino)pyrido[3,2-d]pyrimidin-6-yl)piperazin-1-yl)prop-2-en-1-one] | 14.7 |
| 70.4 | 5130 | C=CC(=O)N1CCN(c2ccc3ncnc(Nc4ccc(Cc5ccc6c(c5)ncn6C)c(C)c4)c3c2F)C[C@H]1C [Compound 78, 1-[(2R)-4-[5-fluoro-4-({3-methyl-4-[(1-methyl-1,3-benzodiazol-5-yl)methyl]phenyl}amino)quinazolin-6-yl]-2-methylpiperazin-1-yl]prop-2-en-1-one] | 22.6 |
| 12.9 | 2420 | Cc1cc(Nc2ncnc3ccc(N4CCN(C(=O)/C=C/CN(C)C)CC4)nc23)ccc1Cc1ccn2ncnc2c1 [Compound 87, (E)-1-(4-(4-((4-([1,2,4]triazolo[1,5-a]pyridin-7-ylmethyl)-3-methylphenyl)amino)pyrido[3,2-d]pyrimidin-6-yl)piperazin-1-yl)-4-(dimethylamino)but-2-en-1-one] | 17.3 |
| 33.1 | > 10000 | C=CC(=O)N1CCN(c2ccc3ncnc(Nc4ccc(Cc5ccn6ncnc6c5)c(C)c4)c3c2)C[C@H]1C [Compound 112, (R)-1-(4-(4-((4-([1,2,4]triazolo[1,5-a]pyridin-7-ylmethyl)-3-methylphenyl)amino)quinazolin-6-yl)-2-methylpiperazin-1-yl)prop-2-en-1-one] | 28 |
| 31.6 | > 10000 | Cc1cc(Nc2ncnc3ccc(N4CCN(C(=O)/C=C/CN(C)C)CC4)c(F)c23)ccc1Cc1ccn2ncnc2c1 [Compound 92, (2E)-4-(dimethylamino)-1-(4-{5-fluoro-4-[(3-methyl-4-{[1,2,4]triazolo[1,5-a]pyridin-7-ylmethyl}phenyl)amino]quinazolin-6-yl}piperazin-1-yl) but-2-en-1-one] | 110 |
| 36.5 | 2080 | Cc1cc(Nc2ncnc3ccc(N4CCN(C(=O)/C=C/CN(C)C)CC4)nc23)ccc1Cc1ccc2c(c1)ncn2C [Compound 120, (E)-4-(dimethylamino)-1-(4-(4-((3-methyl-4-((1-methyl-1H-benzo[d]imidazol-5-yl)methyl)phenyl)amino)pyrido[3,2-d]pyrimidin-6-yl)piperazin-1-yl)but-2-en-1-one] | 7.1 |
| 67.9 | 2680 | CC#CC(=O)N1CCN(c2ncc3ncnc(Nc4ccc(Oc5ccc6c(c5)ncn6C)c(C)c4)c3n2)C[C@H]1C [Compound 72, (R)-1-(2-methyl-4-(8-((3-methyl-4-((1-methyl-1H-benzo[d]imidazol-5-yl)oxy)phenyl)amino)pyrimido[5,4-d]pyrimidin-2-yl)piperazin-1-yl) but-2-yn-1-one] | 10.1 |
